“Also recorded” adds a separate entry of the source. Where two headings read alike, the source gives them in different places.
How the values were obtained:
[1] = system: SF-295; test: NCI in vitro tumor cell screen, SF-295 CNS tumor; format: cell-based; settings: Homo sapiens, SF-295; read-out: logGI50 (converted)
Protocol: (§1) Selected 2-phenyl-4-quinolones were assayed using an in vitro, disease-oriented antitumor screen run by the National Cancer Institute (NCI) (e.g., Boyd 1989). The screen involved approximately 60 different cell lines and is a useful indicator of in vivo antitumor activity for a broad variety of tumor types (Grever et al., 1992; Monks et al., 1991). The cell lines tested included cells derived from the following solid tumor types: leukemia, non-small cell lung, colon, the central nervous system (CNS), melanoma, ovarian, renal, prostate, and breast cancers.
(§2) melonoma; SF268 and SF295, CNS tumor cell lines; DU145, prostate cancer

[2] = system: tubulin; test: inhibition of radiolabeled colchicine binding to tubulin (ICB); design: species or system bovine; settings: evaluated only when polymerization IC50 ≤ 1.0 μM; inhibitor equimolar with [3H]colchicine, 5-fold molar excess over tubulin
Protocol: Studies conducted in support of the present invention indicate that one mode of action of the 2-phenyl-4-quinolone compounds, as antitumor agents, is an ability to bind to tubulin and inhibit cell mitosis. […] […].
[…]. […] […].
Electrophoretically homogeneous bovine brain tubulin was purified as described previously (Hamel, et al., 1984). Combretastatin A-4 was a generous gift of Dr. G. R. Pettit, Arizona State University. Dihydrocombretastatin A-4 was prepared as described previously (Getahun et al., 1992). […]

[3] = system: HCT116; test: NCI in vitro tumor cell screen, HCT116 colon cancer; format: cell-based; settings: Homo sapiens, HCT-116
Protocol: as §1

[4] = system: OVCAR-4; test: NCI in vitro tumor cell screen, OVCAR-4 ovarian cancer; format: cell-based; settings: Homo sapiens
Protocol: as §1

[5] = system: RXF-393; test: NCI in vitro tumor cell screen, RXF-393 renal cancer; format: cell-based; settings: Homo sapiens
Protocol: as §1

[6] = system: K-562; test: NCI in vitro tumor cell screen, K-562 leukemia; format: cell-based; settings: Homo sapiens, K562
Protocol: as §1

[7] = system: OVCAR-3; test: NCI in vitro tumor cell screen, OVCAR-3 ovarian cancer; format: cell-based; settings: Homo sapiens
Protocol: as §1

[8] = system: tubulin; test: inhibition of tubulin polymerization (ITP); format: biochemical, bovine
Protocol: Electrophoretically homogeneous bovine brain tubulin was purified as described previously (Hamel, et al., 1984). […] Dihydrocombretastatin A-4 was prepared as described previously (Getahun et al., 1992).
The tubulin polymerization assay was performed as described previously (Li et al., 1994). In brief, tubulin at 1.2 mg/mL ([…]) was preincubated for 15 min at 26° C. in a 0.24 mL volume in 0.8M monosodium glutamate (pH 6.6 with NaOH in a 2M stock solution) with varying drug concentrations. The drug stock solutions were in dimethyl sulfoxide, and the final solvent concentration was 4% (v/v). […] All concentrations are in terms of the final reaction volume (0.25 mL). The reaction mixtures were chilled on ice, and […] of 10 mM GTP was added to each reaction mixture. Samples were transferred to cuvettes held at 0° C. by an electronic temperature controller in Gilford spectrophotometers. Baselines were established at 350 nm, and polymerization initiated by a temperature jump to 26° C. The jump took about 50 sec to complete. After 20 min, turbidity readings were recorded, and the temperature controller was set to 0° C. When depolymerization was complete, turbidity readings were again recorded. […] IC50 values were obtained graphically from inhibition of polymerization by different drug concentrations. Four spectrophotometers were used for each experimental sequence, with at least two control reactions (no drug) in each set.

[9] = system: approximately 60 different cell lines; test: NCI in vitro disease-oriented human tumor cell screen, all cell lines; format: cell-based; settings: for GI50: Homo sapiens
From the text: The cell lines tested included cells derived from the following solid tumor types: leukemia, non-small cell lung, colon, the central nervous system (CNS), melanoma, ovarian, renal, prostate, and breast cancers.

[10] = system: KM202L; test: NCI in vitro tumor cell screen, KM20L2 colon cancer; format: cell-based; settings: Homo sapiens, KM-20L2
Protocol: as §1

[11] = system: NCI-H226; test: NCI in vitro tumor cell screen, NCI-H226 non-small cell lung cancer; format: cell-based; settings: Homo sapiens
Protocol: as §1

[12] = system: MDA-N; test: NCI in vitro tumor cell screen, MDA-N breast cancer; format: cell-based; settings: Homo sapiens
Protocol: as §1

[13] = system: SK-Mel-5; test: NCI in vitro tumor cell screen, SK-Mel-5 melanoma; format: cell-based; settings: Homo sapiens
Protocol: as §1, §2

[14] = system: DU-145; test: NCI in vitro tumor cell screen, DU-145 prostate cancer; format: cell-based; settings: Homo sapiens
Protocol: as §1, §2

[15] = system: SF-268; test: NCI in vitro tumor cell screen, SF-268 CNS tumor; format: cell-based; settings: Homo sapiens
Protocol: as §1, §2

[16] = system: protein-linked DNA; test: breaks in protein-linked DNA; settings: compared with VP-16
[17] = ± SD, tubulin 1.2 mg/mL, 26° C., 20 min, read-out: ITP IC50 (inhibition of tubulin polymerization)
[18] = calculated from all cell lines tested (Table II), read-out: average logGI50 (converted)
[19] = average over cell lines, read-out: average log GI50 (converted)
[20] = SF-268, CNS tumor, read-out: logGI50 (converted)

For `O=c1cc(-c2cccc(OC(F)(F)F)c2)[nH]c2cc3c(cc12)OCO3` [compound 17, 3'-Trifluoromethoxy-6,7-methylenedioxy-2-phenyl-4-quinolone], the GI50 [1] was 25.7 nM, the “ICB (% inhibition of colchicine binding)” value [2] was 40 ± 5% and the GI50 [3] was 14.1 nM. For the same compound, the GI50 [4] was 25.7 nM, the GI50 [5] was 40.7 nM and the GI50 [6] was 36.3 nM. The GI50 [7] was 63.1 nM, the IC50 [8, 17] was 0.0005 ± 0.0001 mM and the GI50 [9, 18] was 417 nM. For the same compound, the GI50 [10] was 36.3 nM, the GI50 [11] was 195 nM and the GI50 [12] was under 10 nM. The GI50 [13] was 170 nM and the GI50 [14] was 45.7 nM.

In the case of `CCOc1cccc(-c2cc(=O)c3cc4c(cc3[nH]2)OCO4)c1` [compound 18, 3'-Ethoxy-6,7-methylenedioxy-2-phenyl-4-quinolone], the GI50 [1] is reported as 64.6 nM, the “ICB (% inhibition of colchicine binding)” value [2] is reported as 40 ± 2% and the GI50 [3] is reported as 174 nM. For the same compound, the GI50 [5] was 275 nM, the GI50 [6] was 44.7 nM and the GI50 [7] was 166 nM. For the same compound, the IC50 [8, 17] was 0.00047 ± 0.0001 mM, the GI50 [9, 19] was 224 nM and the GI50 [9, 18] was 224 nM. The GI50 [10] was 182 nM, the GI50 [11] was 324 nM and the GI50 [12] was 17.8 nM. For the same compound, the GI50 [13] was 191 nM, the GI50 [15, 20] was 269 nM and the GI50 [14] was 251 nM.

For `O=c1cc(-c2cccc(OCc3ccccc3)c2)[nH]c2cc3c(cc12)OCO3` [compound 19, 3'-Benzyloxy-6,7-methylenedioxy-2-phenyl-4-quinolone], the GI50 [1] was 447 nM, the “ICB (% inhibition of colchicine binding)” value [2] was 26 ± 5% and the GI50 [3] was 389 nM. The GI50 [4] was over 100000 nM, the GI50 [5] was 407 nM and the GI50 [6] was 363 nM. It also gave a GI50 [7] of 245 nM, an IC50 [8, 17] of 0.00045 ± 3e-05 mM and a GI50 [9, 18] of 676 nM. For the same compound, the GI50 [10] was 224 nM, the GI50 [11] was 229 nM and the GI50 [12] was 145 nM. For the same compound, the GI50 [13] was 282 nM, the GI50 [15, 20] was 12900 nM and the GI50 [14] was 1100 nM.

`COc1cccc(-c2cc(O)c3cc(N(C)C)ccc3n2)c1` [compound 23, 3'-Methoxy-6-N,N-dimethylamino-2-phenyl-4-quinolone] was tested, and the GI50 [1] was 15.5 nM, the “ICB (% inhibition of colchicine binding)” value [2] was 14 ± 8% and the GI50 [4] was 5500 nM. The GI50 [5] was 18.6 nM, the GI50 [6] was 8.91 nM and the GI50 [7] was 15.1 nM. The IC50 ([8]; values given in mM, read-out: IC50, inhibition of tubulin polymerization) was 0.00038 mM, the IC50 [8, 17] was 0.00038 ± 0.0001 mM and the “antitumor activity / cytotoxicity, in words” value [9] was “in every case lower than those observed for compounds 10-22, 25-27, and 32”. The “difference in average log GI50 versus compounds 10-22, 25-27, and 32” value [9] was “at least 0.9 log units”, the GI50 [9, 19] was 31.6 nM and the GI50 [9, 18] was 30.2 nM. The GI50 [10] was 4.57 nM, the GI50 [11] was 44.7 nM and the GI50 [12] was 1.7 nM. For the same compound, the GI50 [13] was 25.7 nM, the GI50 [15, 20] was 43.7 nM and the GI50 [14] was 34.7 nM.

`COc1cccc(-c2cc(O)c3cc(Cl)ccc3n2)c1` [compound 24, 3'-Methoxy-6-chloro-2-phenyl-4-quinolone] was tested, and the “ICB (% inhibition of colchicine binding)” value [2] was 16 ± 5%, the IC50 [8, 17] was 0.0007 ± 0.0002 mM and the “breaks in protein-linked DNA” value [16] was “no detectable breaks in protein-linked DNA”.

`CC(=O)Nc1ccc2nc(-c3cccc(Cl)c3)cc(O)c2c1` [compound 26, 3'-Chloro-6-acetamido-2-phenyl-4-quinolone] was tested, and the GI50 [4] was over 100000 nM, the IC50 [8, 17] was 0.0023 ± 0.0007 mM and the “breaks in protein-linked DNA” value [16] was “no detectable breaks in protein-linked DNA”. The GI50 [9, 18] was 10500 nM.

In the case of `COc1cccc(-c2cc(O)c3cc(NC(C)=O)ccc3n2)c1` [compound 27, 3'-Methoxy-6-acetamido-2-phenyl-4-quinolone], the IC50 [8, 17] is reported as 0.0021 ± 0.0005 mM, the “breaks in protein-linked DNA” value [16] is reported as “no detectable breaks in protein-linked DNA” and the GI50 [9, 18] is reported as 20000 nM. For the same compound, the GI50 ([15]; SF-268, read-out: logGI50 (converted)) was 5500 nM.

For `COc1cccc(-c2cc(O)c3cc(N4CCCC4)ccc3n2)c1` [compound 28, 3'-Methoxy-6-pyrrolinyl-2-phenyl-4-quinolone], the GI50 [1] was under 1 nM, the GI50 [3] was under 1 nM and the GI50 [4] was 2000 nM. For the same compound, the GI50 [5] was under 1 nM, the GI50 [6] was under 1 nM and the GI50 [7] was under 1 nM. The “antitumor activity / cytotoxicity, in words” value [9] was “most potent activity of all; also recorded: exceeded the sensitivity of the testing protocol for many of the cell lines tested”, the GI50 [9, 19] was at most 1.86 nM and the GI50 [9, 18] was 1.86 nM. For the same compound, the GI50 [10] was under 1 nM, the GI50 [11] was under 1 nM and the GI50 [12] was under 1 nM. For the same compound, the GI50 [13] was under 1 nM, the GI50 [15, 20] was under 1 nM and the GI50 [14] was under 1 nM.

Source: patent US5571822A, “Antitumor compounds” (The University of North Carolina at Chapel Hill, priority 1994, dated 1996)
